The values below come from ChEMBL document CHEMBL1123484 (J Med Chem, 1986).

Some results are limits rather than exact numbers.

Assay [1] deals with L1210. Nature of the assay: Compound was tested for its ability to inhibit growth of L1210 mouse leukemia cells. It is filed as functional, cell-based.
Assay [2] has as its system L1210 ( R81). Nature of the assay: Compound was tested for its ability to inhibit growth of L1210/R81 cells. It is filed as functional, cell-based. Particulars: Mus musculus.
Assay [3] deals with T1, Dihydrofolate reductase (Mus musculus, UniProt P00375).
T1 sequence (P00375 whole entry): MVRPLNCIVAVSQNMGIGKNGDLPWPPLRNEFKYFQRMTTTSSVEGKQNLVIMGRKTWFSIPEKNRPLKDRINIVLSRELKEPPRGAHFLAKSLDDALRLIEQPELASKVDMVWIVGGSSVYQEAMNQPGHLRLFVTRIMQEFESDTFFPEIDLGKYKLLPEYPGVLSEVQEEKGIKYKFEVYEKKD
Nature of the assay: biochemical.
Description: Compound was tested for its ability to inhibit purified dihydrofolate reductase(DHFR) from L1210/R81 cells

The target in assay [4] is T2, Folylpolyglutamate synthase, mitochondrial (Mus musculus) (UniProt P48760).
T2 sequence (whole entry): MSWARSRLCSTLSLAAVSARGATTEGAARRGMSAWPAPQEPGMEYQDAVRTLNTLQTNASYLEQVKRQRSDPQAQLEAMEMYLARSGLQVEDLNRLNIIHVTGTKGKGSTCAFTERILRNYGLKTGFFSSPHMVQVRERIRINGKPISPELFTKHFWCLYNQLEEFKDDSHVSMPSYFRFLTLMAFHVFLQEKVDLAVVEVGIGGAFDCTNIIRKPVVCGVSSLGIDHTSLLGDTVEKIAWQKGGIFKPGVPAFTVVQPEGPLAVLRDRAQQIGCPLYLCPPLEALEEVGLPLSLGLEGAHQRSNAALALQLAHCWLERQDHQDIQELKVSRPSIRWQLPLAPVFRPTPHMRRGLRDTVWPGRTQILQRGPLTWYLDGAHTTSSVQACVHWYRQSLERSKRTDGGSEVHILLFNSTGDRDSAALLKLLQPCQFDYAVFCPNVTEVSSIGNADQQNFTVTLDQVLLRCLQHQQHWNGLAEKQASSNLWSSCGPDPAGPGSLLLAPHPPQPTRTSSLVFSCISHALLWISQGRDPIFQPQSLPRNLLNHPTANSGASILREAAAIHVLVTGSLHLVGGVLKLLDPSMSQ
The assay is described as follows: Compound (500 uM folate.

The target in assay [5] is T3, Folylpolyglutamate synthase, mitochondrial (Mus musculus, UniProt P48760).
T3 sequence (P48760 whole entry): T2 sequence (whole entry)
The assay is described as follows: Compound was tested for its ability to inhibit Folyl-polyglutamate synthase from mouse liver.

As for `CN(Cc1cnc2nc(N)nc(N)c2n1)c1ccc(C(=O)NC(CN)C(=O)O)cc1` (stereo unspecified), the values for the half-inhibitory concentration (IC50) in assay [1], in assay [2] and in assay [3] were 440 nM, 405000 nM and 180 nM, respectively. Moreover, in assay [4], the inhibition (in general, how much of the control response was suppressed) was < 10%.
As for `Nc1nc(N)c2nc(CNc3ccc(C(=O)N[C@@H](CCC(=O)O)C(=O)O)cc3)cnc2n1` [AMINOPTERIN], the concentration for half-maximal inhibition (IC50) – broadly, the point on the concentration scale where inhibition reaches its midpoint – in assay [2] came to 84000 nM.
In the case of `NCCCC(NC(=O)c1ccc(NCc2cnc3nc(N)nc(N)c3n2)cc1)C(=O)O` (stereo unspecified), the IC50 was determined as 1300 nM in assay [1] and 32000 nM in assay [2]. Further, in assay [5], the Ki (as a rule, the equilibrium dissociation constant of an inhibitor or competing ligand from its target) was found to be 150 nM.
`CN(Cc1cnc2nc(N)nc(N)c2n1)c1ccc(C(=O)NC(CCCCN)C(=O)O)cc1` (stereo unspecified): the concentration for half-maximal inhibition (IC50) in assay [1] stood at 400 nM; in assay [2], 220000 nM; in assay [3], 65 nM. The inhibition in assay [4] is < 10%.
The like results for `CN(Cc1cnc2nc(N)nc(N)c2n1)c1ccc(C(=O)NC(CCN)C(=O)O)cc1` (stereo unspecified) were, in that order, 2420 nM, 290000 nM, 120 nM and < 10%.
For the compound `CN(Cc1cnc2nc(N)nc(N)c2n1)c1ccc(C(=O)NC(CCCN)C(=O)O)cc1` (stereo unspecified), the IC50 in assay [1] turned out to be 1300 nM; in assay [2] it was 86000 nM; in assay [3], 160 nM. Besides, in assay [5], the inhibitory constant (Ki) was 20400 nM.
`CN(Cc1cnc2nc(N)nc(N)c2n1)c1ccc(C(=O)N[C@@H](CCC(=O)O)C(=O)O)cc1` [METHOTREXATE] showed an IC50 in assay [2] of 220000 nM.
